# Measurements from PMC5238433 (Scientific Reports, 2017).
# Entries after “also recorded” stand apart in the source; their conditions may differ.
# Key:
# APJ homodimer = test: MALDI-TOF MS of immunoprecipitated APJ complex after treatment with HIV TAT-TMD interference peptides; type: binding, human; conditions: peptide 4 μM, 60 min, 37 °C; for species detected by MALDI-TOF MS / effect of peptide on APJ homodimerization: cells transfected with APJ, anti-APJ immunoprecipitation, MALDI-TOF linear positive mode, mass range 4–10 kDa, sinapic acid; for binding to APJ (peptides encoding TMDs, MS): MALDI-TOF
# From the text: TMDs are important for the formation of head-to-head interfaces in class A GPCR dimers. To identify dimerization interfaces in the seven TMDs of APJ, the effects of cell-penetrating interference peptides (containing the sequence of the hydrophobic transmembrane helices) on APJ homodimerization were examined by MS.
# Figure 5 The effects of interference peptides on apelin receptor (APJ) homodimerization as measured by matrix assisted laser desorption […] time-of-flight (MALDI-TOF) mass spectrometry.
# The identity of the TMD peptide sequences was analyzed with liquid chromatography (LC)-MS.
# MS was performed to identity APJ dimer interfaces in samples treated with TMD peptides. Cells were transfected with APJ and, 48 h later, treated with or without the indicated HIV TAT-TMD fused peptides (4 μM) for 60 min at 37 °C. Extracted proteins were immunoprecipitated using an anti-APJ antibody. Protein A/G PLUS-agarose beads were incubated with proteins for 2 h and washed four times with lysis buffer. The APJ complex was eluted from beads as described previously. Then, the endogenous APJ complex was analyzed with an AXIMA matrix-assisted laser desorption/ionization time-of-flight (MALDI-TOF) system (Shimazdu) in linear positive mode. The mass range was 4–10 kDa and the matrix was Sinapic Acid (SA), 10 mg/ml (50% acetonitrile (ACN), 50% H2O, 0.1% […] (TFA)). The results were calibrated with a Shimadzu MALDI calibration kit (Laser BioLabs).
# [1] = system: APJ dimer (APJ-Rluc / APJ-EGFP); test: BRET, effect of interference peptides on APJ homodimers; type: cell-based, human; conditions: for effect on APJ dimer BRET signals / reduction of APJ dimer BRET signals: CHO cells, APJ-Rluc:APJ-EGFP 1:3, peptide 4 μM, 37 °C, four independent experiments in triplicate; for reduction of APJ dimer BRET signals: P < 0.01, one range for TMD1, 2, 3 and 4; for disruption of APJ (homo)dimerization (statement in words): interference peptides 4 μM, in vitro, by BRET and MS
# From the text: Figure 7 The effect of interference peptides on apelin receptor (APJ) dimers. […] BRET[1] was detected as described above.
# [2] = system: APJ homodimers (APJ-Rluc / APJ-EGFP); test: BRET, effect of agonist/antagonist treatment on APJ homodimerization; type: cell-based, human; conditions: CHO cells co-expressing APJ-Rluc and APJ-EGFP (1:1); concentration not given; four independent experiments in triplicate
# Method: We further assessed APJ interactions by co-immunoprecipitation (Co-IP), BRET[1], and Förster resonance energy transfer (FRET). […] BRET studies were performed to confirm APJ homodimerization.
# Figure 2 Assessment of apelin receptor (APJ) dimerization using co-immunoprecipitation (Co-IP) and bioluminescence resonance energy transfer (BRET) assays. (A) Assessment of APJ homodimerization with Co-IP. Chinese hamster ovary (CHO) cells were either not transfected (mock) or transfected with HA-APJ, Myc-APJ, or both (co-transfection). HA-APJ and Myc-APJ were also mixed (mix). Immunoprecipitated samples were resolved by SDS-PAGE and immunoblotted with an anti-Myc antibody (upper panel). […] (B) Assessment of APJ homodimerization with BRET[1]. (C) BRET saturation curves. (D) Assessment of effects of agonist-treatment on dimerization by BRET[1]. For BRET, four independent experiments were performed with triplicate samples and the results were expressed as the mean ± SEM of four experiments ([…] versus control group; NS, not significant versus unstimulated cells).
# (§1) To monitor constitutive APJ interactions, CHO cells were transfected with APJ-Rluc and APJ-EGFP plasmids at a ratio of 1:1, 1:2, 1:3, 1:4, 1:5, and 1:6 to express a constant amount of donor-labeled protein with increasing amounts of acceptor-labeled protein. At 24 h post-transfection, cells were trypsinized and plated on a 96 well microplate for 24 h in HEPES-buffered phenol red-free medium (Invitrogen, Life Technologies). Coelenterazine h (5 μM; Promega) was added for BRET measurements using a Tristar LB941 plate reader (Berthold) with an Rluc filter (400–475 nm) and a EGFP filter (500–550 nm). To monitor the induced interactions of APJ, BRET signals were measured as described above, with slight modifications. […] To measure the effects of interference peptides on APJ dimers, CHO cells were co-transfected with APJ-Rluc and APJ-EGFP (1:3) and incubated with interference peptides corresponding to TMD1, TMD2, TMD3, TMD4, TMD5, TMD6, and TMD7 at 37 °C (4 μM), and BRET[1] detected as described above.
# APJ dimers = test: BiFC-BRET, Gα-Rluc8, APJ-VN173 and APJ-VC155, G protein activation by APJ dimers; type: cell-based, human
# From the text: To explore the novel signaling of APJ dimers, we examined the signaling of APJ dimers using BiFC-BRET. […] Cells expressing Gα-Rluc8 and APJ-Venus served as a positive control, and two negative controls (Gα-Rluc8 and APJ-VN173, Gα-Rluc8 and APJ-VC155A) were also introduced. […] (Fig. S5). […] In addition, we have measured the expression levels of donor[23] and acceptor before experiment (Fig. 10).
# Kinetics of ligand-induced BRET between Gα-Rluc8 (8 subtypes), APJ-VN173, and APJ-VC155. […] (A) Gαi1-Rluc8, APJ-VN173, and APJ-VC155; (B) Gαi2-Rluc8, APJ-VN173, and APJ-VC155; (C) Gαi3-Rluc8, APJ-VN173, and APJ-VC155; (D) Gαq-Rluc8, APJ-VN173, and APJ-VC155; (E) Gαs-Rluc8, APJ-VN173, and APJ-VC155; (F) Gαo-Rluc8, APJ-VN173, and APJ-VC155; (G) Gα12-Rluc8, APJ-VN173, and APJ-VC155; H. Gα13-Rluc8, APJ-VN173, and APJ-VC155.
# APJ-VN173 and APJ-VC155 were generated by fusing either the N-terminal fragment of Venus (Venus N: amino acids 1–172) or the C-terminal fragment of Venus (Venus C: amino acids 156–239) to the C-terminus of the wild-type (wt) full-length apelin receptor. Gαi1-Rluc8, Gαi2-Rluc8, Gαi3-Rluc8, Gαq-Rluc8, Gαoa-Rluc8, and Gαs-Rluc8, pET-21a(+)-GFP, FLAG-BirA-APJ, and HA-AP-APJ were constructed as described previously.
# as §1
# [3] = system: APJ oligomers (APJ-Rluc, APJ-VN173, APJ-VC155); test: BiFC-BRET, effect of agonist/antagonist treatment on APJ oligomerization; type: cell-based, human; conditions: CHO cells co-expressing APJ-Rluc, concentration not given, four independent experiments in triplicate
# Method: Additionally, BiFC-BRET assays were performed to detect APJ oligomerization in living cells. Two non-fluorescent fragments (pCE-BiFC-VN173 and pCE-BiFC-VC155) of Venus fluorescent protein were separately fused to APJ (APJ-VN173 and APJ-VC155) (Fig. 4A). CHO cells were then co-transfected with APJ-Rluc, APJ-VN173, and APJ-VC155 and observed with TIRFM.
# Figure 4 Assessment of apelin receptor (APJ) oligomerization with bioluminescence resonance energy transfer - bimolecular fluorescence complementation (BiFC-BRET). (A) Principle of BiFC-BRET. The assay examines the formation of functional Venus by the complementation of protein fragments fused to APJ. Association of APJ enables formation of a bimolecular fluorescent complex. If all three tagged APJ proteins interact, BRET can occur. (B) TIRFM detection of APJ dimers (yellow particles) after BiFC. (C) Assessment of APJ oligomerization with BiFC-BRET. (D) Assessment of agonist-induced oligomerization.
# [4] = APJ dimers (APJ-VN173 + APJ-VC155), CHO cells, 1 μM apelin-13, 30 min
Substance,species detected by MALDI-TOF MS / effect of peptide on APJ homodimerization (APJ homodimer),"binding to APJ (peptides encoding TMDs, MS) (APJ homodimer)",effect on APJ dimer BRET signals [1],reduction of APJ dimer BRET signals [1],disruption of APJ (homo)dimerization (statement in words) [1],BRET signal versus unstimulated cells (APJ homodimer formation) [2],further results
"IFVNMYASVFCLTGLSFDRYLAIYGRKKRRQRRR [TMD3, HIV TAT-fused interference peptide derived from human APJ transmembrane domain 3]","TMD3, TMD3 dimers, TMD3 tetramers, APJ, [APJ + TMD3], APJ dimers, and [APJ + TMD3] dimers were detected",can bind to APJ,significantly reduced APJ dimer BRET signals,55–75%,disrupted APJ dimerization; also recorded: can effectively disrupt the formation of APJ homodimers; also recorded: disrupted APJ homodimerization in vitro,,
"LMNIFPYCTCISYVNSCLNPFLYYGRKKRRQRRR [TMD7, HIV TAT-fused interference peptide derived from human APJ transmembrane domain 7]","lacked the effect demonstrated by TMD1, 2, 3, and 4; also recorded: TMD7, APJ, and APJ dimers were detected",,no significant effect,,"but not TMD5, 6, and 7, disrupted APJ dimerization",,
"VSSTTVGFVVPFTIMLTCYFFIAYGRKKRRQRRR [TMD5, HIV TAT-fused interference peptide derived from human APJ transmembrane domain 5]","lacked the effect demonstrated by TMD1, 2, 3, and 4; also recorded: TMD5, APJ, and APJ dimers were detected",,no significant effect,,"but not TMD5, 6, and 7, disrupted APJ dimerization",,
"YGRKKRRQRRRFIASLAVADLTFVVTLPLWATYT [TMD2, HIV TAT-fused interference peptide derived from human APJ transmembrane domain 2]","TMD2, TMD2 dimers, TMD2 tetramers, APJ, [APJ + TMD2], APJ dimers, and [APJ + TMD2] dimers were detected",can bind to APJ,significantly reduced APJ dimer BRET signals,55–75%,disrupted APJ dimerization; also recorded: can effectively disrupt the formation of APJ homodimers; also recorded: disrupted APJ homodimerization in vitro,,
"YGRKKRRQRRRRLLSIIVVLVVTFALCWMPYHLV [TMD6, HIV TAT-fused interference peptide derived from human APJ transmembrane domain 6]","lacked the effect demonstrated by TMD1, 2, 3, and 4; also recorded: TMD6, APJ, and APJ dimers were detected",,no significant effect,,"but not TMD5, 6, and 7, disrupted APJ dimerization",,
"YGRKKRRQRRRVSGAVATAVLWVLAALLAMPVMV [TMD4, HIV TAT-fused interference peptide derived from human APJ transmembrane domain 4]","TMD4, TMD4 dimers, TMD4 tetramers, APJ, [APJ + TMD4], APJ dimers, and [APJ + TMD4] dimers were detected",can bind to APJ,significantly reduced APJ dimer BRET signals,55–75%,disrupted APJ dimerization; also recorded: can effectively disrupt the formation of APJ homodimers; also recorded: disrupted APJ homodimerization in vitro,,
[Ala13]apelin-13,,,,,,not significantly different to those of unstimulated cells,
apelin-13,,,,,,not significantly different to those of unstimulated cells,"G protein activation, Gα12 (APJ dimers; [4]): not Gαi1, Gαi2, Gαs, Gα12, Gα13, and Gαo; G protein activation, Gα13 (APJ dimers; [4]): not Gαi1, Gαi2, Gαs, Gα12, Gα13, and Gαo; G protein activation, Gαi1 (APJ dimers; [4]): not Gαi1, Gαi2, Gαs, Gα12, Gα13, and Gαo; G protein activation, Gαi2 (APJ dimers; [4]): not Gαi1, Gαi2, Gαs, Gα12, Gα13, and Gαo; G protein activation, Gαi3 (APJ dimers; [4]): activate only Gαi3 and Gαq; G protein activation, Gαo (APJ dimers; [4]): not Gαi1, Gαi2, Gαs, Gα12, Gα13, and Gαo; G protein activation, Gαq (APJ dimers; [4]): activate only Gαi3 and Gαq; G protein activation, Gαs (APJ dimers; [4]): not Gαi1, Gαi2, Gαs, Gα12, Gα13, and Gαo; ligand-induced BRET change, cells expressing APJ tagged with VN173 and VC155 (APJ dimers; Gα-Rluc8 (8 subtypes), CHO cells, 1 μM apelin-13): an increase in BRET was observed only for Gαi3 and Gαq; ligand-induced BRET change, negative controls (APJ dimers; Gα-Rluc8 with APJ-VN173 only or APJ-VC155 only, 1 μM apelin-13): No changes in BRET were observed"
apelin-17,,,,,,not significantly different to those of unstimulated cells,"BRET ratio versus unstimulated cells (APJ oligomerization, BiFC-BRET) [3]: the same as that of unstimulated cells"
